Key:
Assay type in all cases: in vivo
[1] = tested on: Erysiphe graminis tritici (powdery mildew); assay: Test 1 greenhouse foliar spray screen, powdery mildew on wheat; settings: disease control rating, foliar spray on wheat, 400 ppm (+++ at 100 ppm)
[2] = tested on: Pyricularia oryzae (rice blast); assay: whole plant or invertebrate; settings: disease control rating, foliar spray on rice, 400 ppm (+++ at 100 ppm)
[3] = tested on: Puccinia recondita tritici (leaf rust); assay: Test 1 greenhouse foliar spray screen, leaf rust on wheat; settings: disease control rating, foliar spray on wheat, 400 ppm (+++ at 100 ppm)
[4] = tested on: Botrytis cinerea (gray mold); assay: Test 1 greenhouse foliar spray screen, gray mold on grape berries; settings: disease control rating, spray on grape berries, 400 ppm (+++ at 100 ppm)
[5] = tested on: Pseudoperonospora cubensis (downy mildew); assay: Test 1 greenhouse foliar spray screen, downy mildew on squash; settings: disease control rating, foliar spray on squash, 400 ppm (+++ at 100 ppm)
[6] = tested on: Cercospora beticola (leaf spot); assay: Test 1 greenhouse foliar spray screen, leaf spot on sugar beet; settings: disease control rating, foliar spray on sugar beet, 400 ppm (+++ at 100 ppm)
[7] = tested on: Venturia inaequalis (apple scab); assay: Test 1 greenhouse foliar spray screen, apple scab on apple seedling; settings: disease control rating, foliar spray on apple seedling, 400 ppm (+++ at 100 ppm)
[8] = tested on: Septoria tritici (leaf blotch); assay: Test 1 greenhouse foliar spray screen, leaf blotch on wheat; settings: disease control rating, foliar spray on wheat, 400 ppm (+++ at 100 ppm)
[9] = tested on: southern armyworm (Spodopetra eridania Cramer); assay: Mite/insect screen, SAW; settings: Spodoptera eridania, percent mortality, SAW, read-out: SAW RESULTS %; for mortality at 200 ppm: SM & MA RATE 200 PPM; for mortality at 400 ppm: SM & MA RATE 400 PPM
Procedure, shortened: (§1)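 Formulation: acetone/alcohol 50:50 + sulfonate/nonionic emulsifiers, water-diluted to indicated concs. Spray both leaf surfaces to runoff, 10 psi; dry 1 h. Armyworm: 2 excised uninfested leaves in Petri dish. Score % mortality after standard exposure.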

[10] = tested on: Twospotted spider mites (Tetranychus urticae Koch); assay: Mite/insect screen, SM; settings: for mortality at 200 ppm / mortality at 400 ppm: Tetranychus urticae, percent mortality, SAW, read-out: SM RESULTS %; for mortality at 200 ppm: SM & MA RATE 200 PPM; for mortality at 400 ppm: SM & MA RATE 400 PPM
Procedure, shortened: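 Compounds dissolved in 50:50 acetone/alcohol containing sulfonate/nonionic emulsifier blends, then diluted with water to the indicated concentrations. Leaves sprayed on both surfaces to runoff at 10 psi and dried one hour. Percent mortality scored after standard exposure periods.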

[11] = tested on: melon aphids (Aphis gossypii Glover); assay: Mite/insect screen, MA; settings: Aphis gossypii, percent mortality, SAW, read-out: MA RESULTS %; for mortality at 200 ppm: SM & MA RATE 200 PPM; for mortality at 400 ppm: SM & MA RATE 400 PPM
Procedure, shortened: as §1

corn rootworm = assay: Mite/insect screen, CRW; settings: percent mortality, read-out: CRW RESULTS %; for mortality at 12 ppm: CRW RATE 12.00 PPM; for mortality at 24 ppm: CRW RATE 24.00 PPM
Procedure, shortened: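 Percent mortality is evaluated once the standard exposure period ends. Test material is applied as a water dilution of an acetone/alcohol (50:50) stock carrying two sulfonate/nonionic emulsifiers (23 and 13 g per liter).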

SMILES | POWD MDEW [1] | RICE BLAST [2] | LEAF RUST [3] | GRAY MOLD [4] | DOWN MDEW [5] | LEAF SPOT [6] | APPL SCAB [7] | LEAF BLOT [8] | mortality at 200 ppm [9] [%] | mortality at 400 ppm [9] [%] | mortality at 200 ppm [10] [%] | mortality at 400 ppm [10] [%] | mortality at 200 ppm [11] [%] | mortality at 400 ppm [11] [%] | mortality at 12 ppm (corn rootworm) [%] | mortality at 24 ppm (corn rootworm) [%] | activity as miticides ([10]; summary statement in the description)
COc1ccc(CCNc2ccnc3cc(C(F)(F)F)ccc23)cc1OC [Example 48, N-[2-(3,4-dimethoxyphenyl)ethyl]-7-(trifluoromethyl)-4-quinolinamine] | + (20-89% control at 400 ppm) | + (20-89% control at 400 ppm) | + (20-89% control at 400 ppm) | - (0-19% control at 400 ppm) | ++ (90-100% control at 400 ppm) | + (20-89% control at 400 ppm) | - (0-19% control at 400 ppm) | - (0-19% control at 400 ppm) | 0 | 0 | 0 | 0 | 0 | 0 | 0 | 0 | –
Cc1ccc(CCNc2ccnc3cc(Cl)ccc23)cc1 [Example 50, 7-chloro-N-[2-(4-methylphenyl)ethyl]-4-quinolinamine] | +++ (90-100% control at 100 ppm) | - (0-19% control at 400 ppm) | ++ (90-100% control at 400 ppm) | - (0-19% control at 400 ppm) | +++ (90-100% control at 100 ppm) | - (0-19% control at 400 ppm) | - (0-19% control at 400 ppm) | - (0-19% control at 400 ppm) | 0 | 0 | 0 | 0 | 0 | 0 | 0 | 0 | –
Fc1ccc(CCNc2ccnc3c(Cl)cccc23)cc1 [Example 51, 8-chloro-N-[2-(4-fluorophenyl)ethyl]-4-quinolinamine] | - (0-19% control at 400 ppm) | + (20-89% control at 400 ppm) | + (20-89% control at 400 ppm) | - (0-19% control at 400 ppm) | +++ (90-100% control at 100 ppm) | +++ (90-100% control at 100 ppm) | - (0-19% control at 400 ppm) | - (0-19% control at 400 ppm) | 0 | 20 | 0 | 0 | 0 | 0 | 0 | 0 | –
FC(F)(F)c1cccc2c(NCCc3ccc(Cl)cc3Cl)ccnc12 [Example 52, N-[2-(2,4-dichlorophenyl)ethyl]-8-(trifluoromethyl)-4-quinolinamine] | - (0-19% control at 400 ppm) | + (20-89% control at 400 ppm) | + (20-89% control at 400 ppm) | - (0-19% control at 400 ppm) | +++ (90-100% control at 100 ppm) | + (20-89% control at 400 ppm) | - (0-19% control at 400 ppm) | +++ (90-100% control at 100 ppm) | 0 | 0 | 0 | 0 | 0 | 0 | 0 | 0 | –
Cc1ccc2nccc(NCCc3ccc(Cl)cc3Cl)c2c1 [Example 53, .N-[2-(2,4-dichlorophenyl)ethyl]-6-methyl-4-quinolinamine] | +++ (90-100% control at 100 ppm) | + (20-89% control at 400 ppm) | + (20-89% control at 400 ppm) | - (0-19% control at 400 ppm) | +++ (90-100% control at 100 ppm) | +++ (90-100% control at 100 ppm) | - (0-19% control at 400 ppm) | + (20-89% control at 400 ppm) | 0 | 0 | 0 | 0 | 0 | 0 | 0 | 0 | –
COc1cc2c(NCCc3ccccc3)cc(C)nc2cc1Cl [Example 54, 7-chloro-6-methoxy-2-methyl-N-(2-phenylethyl)-4-quinolinamine] | - (0-19% control at 400 ppm) | ++ (90-100% control at 400 ppm) | + (20-89% control at 400 ppm) | - (0-19% control at 400 ppm) | +++ (90-100% control at 100 ppm) | +++ (90-100% control at 100 ppm) | - (0-19% control at 400 ppm) | + (20-89% control at 400 ppm) | 0 | – | 0 | – | 0 | – | 0 | – | –
COc1ccccc1CCNc1ccnc2ccccc12 [Example 55, N-[2-(2-methoxyphenyl)ethyl]-4-quinolinamine] | + (20-89% control at 400 ppm) | ++ (90-100% control at 400 ppm) | + (20-89% control at 400 ppm) | - (0-19% control at 400 ppm) | ++ (90-100% control at 400 ppm) | +++ (90-100% control at 100 ppm) | - (0-19% control at 400 ppm) | - (0-19% control at 400 ppm) | 0 | – | 0 | – | 0 | – | 0 | – | –
Fc1ccc2nccc(NCCc3ccc(Cl)cc3)c2c1 [Example 56, N-[2-(4-chlorophenyl)ethyl]-6-fluoro-4-quinolinamine] | - (0-19% control at 400 ppm) | ++ (90-100% control at 400 ppm) | ++ (90-100% control at 400 ppm) | - (0-19% control at 400 ppm) | +++ (90-100% control at 100 ppm) | +++ (90-100% control at 100 ppm) | - (0-19% control at 400 ppm) | + (20-89% control at 400 ppm) | 100 | 80 | 0 | 0 | 0 | 0 | 0 | 0 | particularly excellent activity
Cc1cc(NCCc2ccc(Cl)cc2)c2cc(F)ccc2n1 [Example 57, N-[2-(4-chlorophenyl)ethyl]-2-methyl-6-fluoro-4-quinolinamine] | - (0-19% control at 400 ppm) | ++ (90-100% control at 400 ppm) | + (20-89% control at 400 ppm) | - (0-19% control at 400 ppm) | ++ (90-100% control at 400 ppm) | +++ (90-100% control at 100 ppm) | - (0-19% control at 400 ppm) | - (0-19% control at 400 ppm) | 40 | 50 | 0 | 0 | 0 | 0 | 0 | 0 | –
Fc1cccc2c(NCC(c3ccccc3)C3CCCCC3)ccnc12 (centres unmarked) [Example 62, 8-fluoro-N-(2-cyclohexyl-2-phenylethyl)-4-quinolinamine] | - (0-19% control at 400 ppm) | ++ (90-100% control at 400 ppm) | ++ (90-100% control at 400 ppm) | - (0-19% control at 400 ppm) | +++ (90-100% control at 100 ppm) | - (0-19% control at 400 ppm) | - (0-19% control at 400 ppm) | + (20-89% control at 400 ppm) | – | 0 | – | 0 | – | 0 | – | 0 | –
